Measurements published in patent EP4119547A1, “TRIAZOLE COMPOUNDS FOR THE CONTROL OF INVERTEBRATE PESTS” (priority 2021, dated 2023).

Assays:
Type in all cases: in vivo
[1] = tested on: Green Peach Aphid (Myzus persicae); test: Green peach aphid systemic test, artificial diet under membrane in 96-well microtiter plates; details: 72 h, adult aphids on treated artificial diet, 3 days, read-out: mortality in comparison with untreated controls
Source text: For evaluating control of green peach aphid (Myzus persicae) through systemic means, the test unit consisted of 96-well-microtiter plates containing liquid artificial diet under an artificial mem brane.
The compounds were formulated using a solution containing 75% v/v water and 25% v/v DMSO. Different concentrations of formulated compounds were pipetted into the aphid diet, using a custom built pipetter, at two replications.
After application, 5 - 8 adult aphids were placed on the artificial membrane inside the microtiter plate wells. The aphids were then allowed to suck on the treated aphid diet and incubated at about 23 ± 1°C and about 50 ± 5 % relative humidity for 3 days. Aphid mortality and fecundity was then visually assessed.

[2] = tested on: Diamond back moth (Plutella xylostella); test: Diamond back moth leaf-dip test on cabbage leaves; details: cabbage leaves dipped, 3rd instar larvae, 72 hours after treatment, read-out: mortality in comparison with untreated controls
Protocol: The active compound was dissolved at the desired concentration in a mixture of 1:1 (vol:vol) distilled water: acetone. Surfactant (Kinetic HV) was added at a rate of 0.01% (vol/vol). The test solution was prepared on the day of use.
Leaves of cabbage were dipped in test solution and air-dried. Treated leaves were placed in petri dishes lined with moist filter paper and inoculated with ten 3rd instar larvae. Mortality was recorded 72 hours after treatment. Feeding damages were also recorded using a scale of 0-100%.

[3] = tested on: Yellow fever mosquito (Aedes aegypti); test: whole plant or invertebrate; details: 48 h, larval mortality, 2 days, read-out: mortality in comparison with untreated controls
Protocol: For evaluating control of yellow fever mosquito (Aedes aegypti) the test unit consisted of 96-well-microtiter plates containing 200µl of tap water per well and 5-15 freshly hatched A. aegypti larvae.
The active compounds were formulated using a solution containing 75% (v/v) water and 25% (v/v) DMSO. Different concentrations of formulated compounds or mixtures were sprayed onto the insect diet at 2.5µl, using a custom-built micro atomizer, at two replications.
After application, microtiter plates were incubated at 28 ± 1°C, 80 ± 5 % RH for 2 days. Larval mortality was then visually assessed.

[4] = tested on: Tobacco budworm (Heliothis virescens); test: Tobacco budworm test, insect diet with eggs in 96-well microtiter plates; details: 120 h, egg and larval mortality, 5 days, read-out: mortality in comparison with untreated controls
Protocol: For evaluating control of tobacco budworm (Heliothis virescens), the test unit consisted of 96-well-microtiter plates containing an insect diet and 15-25 H. virescens eggs.
The compounds were formulated using a solution containing 75% v/v water and 25% v/v DMSO. Different concentrations of formulated compounds were sprayed onto the insect diet at 10 µl, using a custom-built micro atomizer, at two replications.
After application, microtiter plates were incubated at about 28 ± 1°C and about 80 ± 5 % relative humidity for 5 days. Egg and larval mortality was then visually assessed.

[5] = tested on: Boll weevil (Anthonomus grandis); test: Boll weevil test, insect diet with eggs in 96-well microtiter plates; details: 120 h, egg and larval mortality, 5 days, read-out: mortality in comparison with untreated controls
Protocol: For evaluating control of boll weevil (Anthonomus grandis), the test unit consisted of 96-well-microtiter plates containing an insect diet and 5-10 A. grandis eggs.
The compounds were formulated using a solution containing 75% v/v water and 25% v/v DMSO. Different concentrations of formulated compounds were sprayed onto the insect diet at 5 µl, using a custom-built micro atomizer, at two replications.
After application, microtiter plates were incubated at about 25 ± 1°C and about 75 ± 5 % relative humidity for 5 days. Egg and larval mortality was then visually assessed.

[6] = tested on: Orchid thrips (Dichromothrips corbetti); test: Orchid thrips floral-immersion test; details: adult thrips on dipped orchid petals, 72 hours after treatment, read-out: mortality in comparison with untreated controls
Protocol: Dichromothrips corbetti adults used for bioassay were obtained from a colony maintained continuously under laboratory conditions. For testing purposes, the test compound is diluted in a 1:1 mixture of acetone:water (vol:vol), plus Kinetic HV at a rate of 0.01% v/v.
Thrips control potency of each compound was evaluated by using a floral-immersion technique. All petals of individual, intact orchid flowers were dipped into treatment solution and allowed to dry in Petri dishes. Treated petals were placed into individual re-sealable plastic along with about 20 adult thrips. All test arenas were held under continuous light and a temperature of about 28°C for duration of the assay. After 3 days, the numbers of live thrips were counted on each petal. The percent mortality was recorded 72 hours after treatment.

CC(=NO)n1ncnc1C(C)NC(=O)c1cc(C(F)(F)F)cc(C(F)(F)F)c1 (stereo not shown) [I-1, N-[1-[2-[N-hydroxy-C-methyl-carbonimidoyl]-1,2,4-triazol-3-yl]ethyl]-3,5-bis(trifluoromethyl)benzamide]
≥ 75%: mortality at 2500 ppm [1] | mortality at 300 ppm [2] | mortality at 2500 ppm [3] | mortality at 2500 ppm [4]

CO/N=C(/C)n1ncnc1C(C)NC(=O)c1cc(C(F)(F)F)cc(C(F)(F)F)c1 (stereo not shown) [I-3, N-[1-[2-[(Z)-N-methoxy-C-methyl-carbonimidoyl]-1,2,4-triazol-3-yl]ethyl]-3,5-bis(trifluoromethyl)benzamide]
≥ 75%: mortality at 2500 ppm [1] | mortality at 2500 ppm [5] | mortality at 300 ppm [2] | mortality at 2500 ppm [3] | mortality at 2500 ppm [4] | mortality at 300 ppm [6]

CO/N=C(\C)n1ncnc1C(C)NC(=O)c1cc(C(F)(F)F)cc(C(F)(F)F)c1 (stereo not shown) [I-4, N-[1-[2-[(E)-N-methoxy-C-methyl-carbonimidoyl]-1,2,4-triazol-3-yl]ethyl]-3,5-bis(trifluoromethyl)benzamide]
≥ 75%: mortality at 2500 ppm [1] | mortality at 2500 ppm [5] | mortality at 300 ppm [2] | mortality at 2500 ppm [3] | mortality at 2500 ppm [4] | mortality at 300 ppm [6]
